Assays:
[1] = tested on: mobilized peripheral blood CD34+ cells; test: CD34+ expansion assay; format: cell-based; details: Homo sapiens; read-out: CD34 Frequency EC50
Method: Approximately 3,000 mobilized peripheral blood CD34+ cells were plated per well in 384-well plate at a final volume of 45 μL in HSC growth media (SFEM supplemented with Pen/Strep, 50 ng/mL FLT3L, TPO, SCF and IL-6). Serial dilutions were made in HSC growth media with a top final concentration of 10 μM. 5 μL 10× stock was added to each well. The plate was gently tapped on all sides and incubated for 7 days at 37° C./5% CO2. On day 7, the media was aspirated on a Biotek plate washer and 30 μL staining solution was added to the cells with antibodies against CD34-PE, CD90-APC, CD45RA-PE-CF594 in PBS. Cells were washed once in PBS and resuspended in 80 μL for final volume. 40 μL was acquired by flow cytometry (BD Celesta).

[2] = molecular target: T1, aryl hydrocarbon receptor (AHR) (Homo sapiens, UniProt P35869); test: DRE-Luciferase reporter high-throughput screen (AHR antagonist, VAF347-activated)
T1 sequence (P35869 11-848): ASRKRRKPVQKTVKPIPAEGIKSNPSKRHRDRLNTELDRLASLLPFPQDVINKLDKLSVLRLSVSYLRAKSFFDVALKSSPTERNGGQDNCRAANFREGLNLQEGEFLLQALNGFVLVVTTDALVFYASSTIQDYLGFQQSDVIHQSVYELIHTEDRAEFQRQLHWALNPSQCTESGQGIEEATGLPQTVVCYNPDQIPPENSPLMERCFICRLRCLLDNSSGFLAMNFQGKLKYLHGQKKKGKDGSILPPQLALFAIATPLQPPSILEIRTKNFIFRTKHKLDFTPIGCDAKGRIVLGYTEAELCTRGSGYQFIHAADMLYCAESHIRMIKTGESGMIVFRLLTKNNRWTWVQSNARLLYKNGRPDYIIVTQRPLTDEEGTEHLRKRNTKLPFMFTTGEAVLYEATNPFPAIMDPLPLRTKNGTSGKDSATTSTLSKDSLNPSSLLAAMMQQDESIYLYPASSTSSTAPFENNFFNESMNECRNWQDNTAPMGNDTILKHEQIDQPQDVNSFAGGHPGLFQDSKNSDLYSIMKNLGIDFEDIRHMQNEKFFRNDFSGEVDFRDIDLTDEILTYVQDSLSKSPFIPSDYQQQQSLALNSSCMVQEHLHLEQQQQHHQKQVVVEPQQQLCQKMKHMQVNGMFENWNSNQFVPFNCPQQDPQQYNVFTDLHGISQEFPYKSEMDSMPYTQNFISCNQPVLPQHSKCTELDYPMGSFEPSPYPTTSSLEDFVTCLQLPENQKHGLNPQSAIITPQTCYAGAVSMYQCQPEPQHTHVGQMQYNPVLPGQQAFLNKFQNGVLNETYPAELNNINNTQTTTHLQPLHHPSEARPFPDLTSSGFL

Structure (SMILES) | EC50 [1] | IC50 [2]
Cc1ccc(Cl)cc1-n1ccc2nc(N3CCCCC3)ncc2c1=O [compound 134] | 1 to 5 µM | 0.5 to 1 µM
CC(C)n1nnc2cc(C(=O)Nc3ccc(Cl)cc3)ccc21 [compound 17] | < 0.5 µM | 0.5 to 1 µM
CCCc1cc(C(N)=O)c(NC(=O)COc2ccccc2C)s1 [compound 119] | < 0.5 µM | 0.2 to 0.5 µM
Cc1cc(Oc2ncccc2C#N)ccc1NC(=O)c1oc(Br)cc1C [compound 26] | 1 to 5 µM | 0.2 to 0.5 µM
CCc1cccc2c(-c3cn4cc(S(N)(=O)=O)ccc4n3)c[nH]c12 [compound 100] | < 0.5 µM | < 0.2 µM
Cc1ccc(Cc2c(C)nc(Nc3nc(C)c4ccc(C)cc4n3)[nH]c2=O)cc1 [compound 124] | 1 to 5 µM | 0.2 to 0.5 µM
O=[N+]([O-])c1ccc(-c2cn3nc(C(F)(F)F)sc3n2)cc1 [compound 68] | 0.5 to 1 µM | 0.2 to 0.5 µM
Cc1ccc(-c2ccc3c(C)nn(-c4ccccn4)c3n2)cc1 [compound 105] | 1 to 5 µM | 0.2 to 0.5 µM
Cc1ccc(Nc2ccc(NC(=O)c3ccc(-c4ccccc4)cc3)cc2)nn1 [compound 5] | 1 to 5 µM | 0.5 to 1 µM
Cc1ccn2c(-c3csc(Nc4ccccn4)n3)c(C)nc2c1 [compound 60] | 1 to 5 µM | 0.5 to 1 µM
N#Cc1ccc(C(=O)Nc2cc(C(F)(F)F)ccc2Cl)c(F)c1 [compound 2] | 0.5 to 1 µM | 0.2 to 0.5 µM
Cc1ccc(-c2nc(-c3cc(C)on3)no2)cc1 [compound 122] | 1 to 5 µM | 0.5 to 1 µM
COc1ccc(-c2nnc(Nc3ccccc3O)c3ccccc23)cc1 [compound 130] | 1 to 5 µM | 0.5 to 1 µM
Cc1ccc(N/N=C/c2ccc(-n3ccnc3)cc2)cc1Cl [compound 98] | 1 to 5 µM | 0.5 to 1 µM
CSc1ccccc1C(=O)Nc1ccc2[nH]c(-c3ccc(F)cc3)nc2c1 [compound 13] | < 0.5 µM | 0.5 to 1 µM
Cn1cnnc1Sc1ccc(NC(=O)c2cc(Br)ccc2F)cc1 [compound 7] | 1 to 5 µM | 0.5 to 1 µM
CCC(=O)N1CCc2cc(C(=O)Nc3ccn(CCc4ccccn4)n3)ccc21 [compound 47] | 1 to 5 µM | 0.5 to 1 µM
FC(F)(F)c1ccnc(N/N=C/c2ccc(Cl)cc2Cl)n1 [compound 114] | 1 to 5 µM | 0.5 to 1 µM
CCN(C)C(=O)c1cnc(-c2noc3ccccc23)s1 [compound 65] | 1 to 5 µM | 0.5 to 1 µM
c1ccc(-c2nnc(-c3csc(-c4cccnc4)n3)o2)cc1 [compound 57] | 0.5 to 1 µM | 0.2 to 0.5 µM
COc1ccc(-c2ccc3c(N)c(C(=O)NC4CC4)sc3n2)cc1 [compound 136] | ≥ 5 µM | 0.5 to 1 µM

Structure (SMILES) | EC50 [1] | IC50 [2]
O=C(Nc1ccc(N2CCCC2)nc1)c1cc2c(F)cccc2s1 [compound 46] | 0.5 to 1 µM | 0.2 to 0.5 µM
Cc1cccc(C(=O)Nc2ccc(-c3nc4ncccc4o3)cc2)c1 [compound 4] | 0.5 to 1 µM | 0.5 to 1 µM
Cc1nn2cc(-c3ccc(-c4ccccc4)cc3)nc2s1 [compound 69] | 0.5 to 1 µM | 0.2 to 0.5 µM
CC(C)c1cc(-c2nnc3sc(-c4ccccn4)nn23)[nH]n1 [compound 72] | 0.5 to 1 µM | 0.2 to 0.5 µM
Cc1nc(-c2ccccc2)sc1C(=O)N/N=C/c1cc2ccccc2o1 [compound 115] | 1 to 5 µM | 0.2 to 0.5 µM
CC(=O)N(C)Cc1cccc(NC(=O)c2n[nH]c3ccccc23)c1 [compound 30] | ≥ 5 µM | 0.5 to 1 µM
Cc1ccc(C(=O)Nc2ccc(-c3nccs3)cc2)cc1 [compound 8] | 1 to 5 µM | 0.5 to 1 µM
COc1cc(C(F)(F)F)ccc1C(=O)Nc1cccc(N2CCOCC2)c1 [compound 1] | 0.5 to 1 µM | 0.2 to 0.5 µM
Fc1ccc(/C=N\N2CCN(c3ccccn3)CC2)cc1 [compound 77] | ≥ 5 µM | 0.5 to 1 µM
O=[N+]([O-])c1ccc(/C=N/Nc2nccc(-c3cccnc3)n2)cc1 [compound 113] | 1 to 5 µM | 0.2 to 0.5 µM
COc1ccccc1-c1nnc(SCc2cccc3ccccc23)n1C [compound 96] | 1 to 5 µM | 0.5 to 1 µM
CC(C)OCCCn1c(=O)c(-c2cccs2)nc2cc(S(=O)(=O)N3CCOCC3)ccc21 [compound 128] | 1 to 5 µM | 0.5 to 1 µM
Cc1c(Cl)c(=O)oc2cc(OCc3ccc(Cl)cc3)ccc12 [compound 137] | ≥ 5 µM | 0.5 to 1 µM
CCCCOc1ccc(C(=O)Nc2cccc(C(=O)OCC(C)C)c2)cc1 [compound 9] | ≥ 5 µM | 0.5 to 1 µM
CCc1ccc(C(=O)Nc2scc(-c3ccc(Cl)cc3)c2C(N)=O)s1 [compound 43] | 0.5 to 1 µM | 0.2 to 0.5 µM
N#Cc1nc(NCC(O)c2ccc(OC(F)F)cc2)ccc1Cl (stereo not drawn) [compound 88] | 1 to 5 µM | 0.2 to 0.5 µM
Cc1noc(C)c1C(=O)Nc1ccc(-c2nc3ccccc3o2)cc1 [compound 25] | 0.5 to 1 µM | 0.2 to 0.5 µM
FC(F)(F)c1nc(N2CCN(c3ncccn3)CC2)c2ccccc2n1 [compound 76] | ≥ 5 µM | 0.2 to 0.5 µM
CC(C)(C)c1ccc(O)c(NC(=O)c2cnc3ccccn3c2=O)c1 [compound 27] | 1 to 5 µM | 0.5 to 1 µM
Cc1ccc(Nc2cc(-c3ccccc3)nc3ncnn23)cc1 [compound 107] | 1 to 5 µM | 0.5 to 1 µM
Clc1ccc(COc2ccc(-c3ccnc4ccnn34)cc2)cc1 [compound 104] | 1 to 5 µM | 0.5 to 1 µM

Structure (SMILES) | EC50 [1] | IC50 [2]
COc1cc([N+](=O)[O-])ccc1NC(=O)Nc1nc2c(s1)CCCC2 [compound 121] | 1 to 5 µM | 0.5 to 1 µM
COc1cccc(NC(=O)c2cc3c(=O)n4ccccc4nc3n2C)c1 [compound 18] | < 0.5 µM | 0.2 to 0.5 µM
CCOC(=O)N1CCN(c2nc(CC)nc3sc(C)cc23)CC1 [compound 75] | 1 to 5 µM | 0.2 to 0.5 µM
CCN(CC)C(=O)c1nc2c(s1)CCN(c1ncccn1)CC2 [compound 133] | 1 to 5 µM | 0.5 to 1 µM
CCc1cc(C(=O)Nc2ccc(SC)cc2)sc1C [compound 38] | 1 to 5 µM | 0.5 to 1 µM
COc1ccccc1C(=O)Nc1cccc(-c2cn3ccsc3n2)c1 [compound 6] | 1 to 5 µM | 0.5 to 1 µM
O=c1[nH]c2ccc(-c3csc(-c4ccccn4)n3)cc2[nH]1 [compound 58] | ≥ 5 µM | 0.5 to 1 µM
Cc1cn2nc(NCCOc3ccc(F)cc3)sc2n1 [compound 70] | 0.5 to 1 µM | 0.2 to 0.5 µM
CC(=O)N1CCN(c2nc3cc(C(F)(F)F)ccc3s2)CC1 [compound 74] | 1 to 5 µM | 0.5 to 1 µM
Cc1ccccc1CS(=O)(=O)N1CCc2ccccc2C1 [compound 131] | 1 to 5 µM | 0.5 to 1 µM
OCCCc1nc2n(n1)C(c1cccc(Br)c1)C=C(c1ccc(Cl)cc1)N2 (stereo not drawn) [compound 109] | 0.5 to 1 µM | 0.2 to 0.5 µM
Cc1ccc(C)c(NC(=O)c2nc3c(s2)CCCN3c2ccc(C)nn2)c1 [compound 29] | 1 to 5 µM | 0.5 to 1 µM
Nc1c(-c2nc(-c3ccccc3)cs2)nnn1-c1ccc(F)cc1 [compound 53] | 0.5 to 1 µM | 0.5 to 1 µM
COc1ccc(C(=O)Nc2ccc3c(c2)oc2ccccc23)cc1[N+](=O)[O-] [compound 14] | < 0.5 µM | < 0.2 µM
Cc1cccc(-c2nc(-c3c[nH]c(C(=O)N4CCCC4)c3)cs2)c1 [compound 126] | 1 to 5 µM | 0.5 to 1 µM
Cc1ccc2cc(C(=O)N3CCN(S(=O)(=O)c4cccs4)CC3)[nH]c2c1 [compound 78] | ≥ 5 µM | 0.5 to 1 µM
Fc1ccc(-c2cc(-c3ccccc3)nc(-n3cccn3)n2)cc1 [compound 82] | 0.5 to 1 µM | < 0.2 µM
C/C(=N\Nc1ncc(Br)cn1)c1cccc([N+](=O)[O-])c1 [compound 112] | < 0.5 µM | 0.5 to 1 µM
COc1c(C)cccc1C(=O)Nc1cc(-c2ccc(F)cc2)nn1C [compound 11] | 1 to 5 µM | 0.5 to 1 µM
O=C(N/N=C\c1ccccc1C(F)(F)F)c1n[nH]c2c1CCc1ccccc1-2 [compound 99] | 1 to 5 µM | 0.5 to 1 µM
Cc1ccc(NC(=O)c2cn3ccccc3n2)cc1 [compound 21] | 0.5 to 1 µM | 0.2 to 0.5 µM

Source: patent publication US20210220408A1, “ARYL HYDROCARBON RECEPTOR ANTAGONISTS AND METHODS OF USE” (Magenta Therapeutics Inc., priority 2018, published 2021)
